Here are results for 88 compounds from a melting point compilation (Tetko et al.; mined from patent text by program, amines drawn as free bases though some values may be those of a salt).

SMILES strings stand for the structures.

Take `C[C@H]1CCCN(C(=O)Cc2ccc(Cl)c(Cl)c2)[C@H]1CO` (relative stereo): the melting point (in general, the temperature, or range, at which the solid turns liquid) was 161 to 162 °C.

`CCOc1cc2ncc(NCc3ccccc3)nc2cc1OCC` came in with a melting point of 136 °C. The same measure for `O=C(O)Cc1ccc2c(c1)CC(CCNS(=O)(=O)c1ccccc1)C2` (stereo not drawn): 102 to 103 °C. The same measure for `O=c1[nH]c2cc([N+](=O)[O-])sc2[nH]c1=O`: more than 300 °C; for `N#CCCc1cccc([N+](=O)[O-])c1`: 86 to 88 °C; for `O=C1CCCc2c1c1cccc3c1n2CCC3`: 160 to 164 °C. With `COc1cc(COc2nn(-c3ccccc3)cc2-c2cnco2)ccc1OCc1nc(-c2ccco2)oc1C`, the melting point lay in the range of 153 to 154 °C. The same measure for `CCOc1c(C(=O)O)oc2c3ccccc3n(-c3ccccc3)c12`: 146 to 147 °C; for `COC(=O)CC(=O)CN1C(=O)c2ccccc2C1=O`: 139 to 140 °C.

Take `CCc1c(-c2ccccc2)n(-c2ccccc2Cl)c(-c2ccccc2)cc1=O`: the melting point lay in the range of 165 to 166 °C. As for `CN(Cc1ccc2c(Br)c(OCC#N)ccc2c1)C(=O)c1oc2ccccc2c1CCc1ccccc1`, the melting point lay within 51 to 55 °C. On to `CCCc1cc(=O)n2cccc(O)c2n1`, for which the melting point fell in the range of 95 to 96 °C. The same measure for `NC(=O)c1sc2nccc(N3CCC(c4ccccc4)CC3)c2c1N`: 226 to 233 °C; for `CCSC(NC(C)=O)C(=O)NCc1ccccc1` (stereo not drawn): 146 to 148 °C. The same measure for `O=S1N=C(NCCCN(Cc2ccccc2)c2ccccn2)C(NCc2ccccn2)=N1` (stereo not drawn): 139 to 140 °C; for `O=C1CCCN1C1=CC(CF)(CF)Oc2ccc(C(F)(F)C(F)(F)F)cc21`: 104 to 105 °C. The same measure for `CC(=O)N1CCC(CC(=O)c2ccc(N(C)C)cc2)CC1`: 136 °C; for `COc1ccc2c(c1)c1c3c(c(-c4ccccc4Cl)cc1n2CCC(=O)NS(=O)(=O)CCN(C)C)C(=O)NC3=O`: 208 to 213 °C. In turn, `O=C1NCc2ccccc2N1C1CCNCC1` gave a melting point of 153 to 155 °C. The same measure for `CCCC1NS(=O)(=O)N(CCl)C1=O` (stereo not drawn): 62 to 63.5 °C. The same measure for `O=C(O)c1ncc(C(c2ccccc2)c2ccccc2)cc1C(c1ccccc1)c1ccccc1`: 172 to 175 °C; for `O=[N+]([O-])c1ccc(CCC2CCN(c3cc(Cl)nnc3Cl)CC2)cc1`: 162 to 164 °C. The same measure for `COc1ccc(C(=O)N2c3ccccc3C(N3CCc4ccccc4C3)CC2C)cc1OC` (stereo not drawn): 128 to 129 °C. In the case of `O=c1oc2c(Br)cc(Br)cc2s1`, the melting point lay within 104 to 106 °C.

`COc1ccc2c(c1)c(CC(=O)NN)cn2Cc1ccccc1` showed a melting point of 143 to 144 °C. For `CC(C)(C)c1ccc(OCCCN2CCC(C(O)(c3ccc(F)cc3)c3ccc(F)cc3)CC2)cc1`, the melting point was 126 to 127 °C.

`C#Cc1ccc(C(=C2CC(C)(C)CC(C)(C)C2)c2ccc(O)cc2)cc1`: the melting point lay within 138 to 139 °C. The same measure for `Cc1ccc(O)c(C(CCCC(c2cc(C)ccc2O)c2cc(C)ccc2O)c2cc(C)ccc2O)c1`: 220 to 228 °C. The same measure for `CC1(COCc2ccccc2)COC(c2ccc([N+](=O)[O-])cc2)=N1` (stereo not drawn): 65 to 66 °C; for `O=C(NCCc1ccc(I)cc1)C(F)(F)F`: 136 to 138 °C; for `NCCCn1nc2c3c(c(Cl)ccc31)C(=O)c1c(OCc3ccccc3)ccc(OCc3ccccc3)c1-2`: 180 to 184 °C. The same measure for `Cc1nn(C)c(C)c1C(=O)NC/C=C\COc1cc(CN2CCCCC2)ccn1`: 75 to 77 °C; for `COc1ccc(C2CNC(=O)N2C(C)c2ccccc2)cc1OC1CC2CCC1C2` (stereo not drawn): 151 to 154 °C. On to `Oc1ccc2cc(-c3cc4ccccc4s3)ccc2c1Cl`, for which the melting point is 220 to 221 °C. The same measure for `CCOC(=O)c1cn(CC)c2sc(C)cc2c1=O`: 140 to 142 °C; for `O=[N+]([O-])c1ccc(CSCc2c[nH]cn2)cc1`: 88 °C. The same measure for `O=C(Nc1ccc2oc(N3CCOCC3)cc(=O)c2c1)OCc1ccccc1`: 245 to 250 °C; for `Cc1ccc(C(=O)N[C@H]2CC[C@H](CCN3CCC(c4cccc5c4CCO5)CC3)CC2)cn1`: 202 °C. The same measure for `O=C1CCC(c2ccc(Br)cc2)N1` (stereo not drawn): 142 °C; for `CCS(=O)(=O)NC1CCCOc2c(C)cc(Cl)cc21` (stereo not drawn): 144 to 145 °C; for `CCCN(CCC)Cc1csc(-c2ncn3c2[C@@H]2CCCN2C(=O)c2c(Cl)cccc2-3)n1`: 213 to 214 °C. `CCOP(=O)(OCC)C(F)c1ccc(NC(=O)CCc2oc(-n3cnc4ccccc43)nc2-c2ccc(Cl)cc2)cc1` (stereo not drawn): the melting point lay within 152 to 155 °C. The same measure for `COc1cc(OC)cc(-c2ncn(-c3cc(OC)c(OC)c(OC)c3)c2-c2ccc(OC)c(F)c2)c1`: 157 to 158 °C; for `CCOC(=O)c1cn(-c2nccnn2)cn1`: 193 to 194 °C; for `C#CCOc1ccccc1S(N)(=O)=O`: 143 to 145 °C.

On to `CCOC(=O)c1oc(SC)c2c1CCCC2=O`, for which the melting point fell in the range of 123 to 124 °C. The same measure for `OC[C@@H](O)c1ccccc1Cl`: 39 °C. The same measure for `O=C(CCCl)N1c2ccccc2CCc2ccccc21`: 107 to 108 °C; for `CC=CCNc1cc(C(=O)O)cc(S(N)(=O)=O)c1Oc1cccc(NC(C)=O)c1`: 198 to 202 °C; for `OC[C@@H](O)[C@@H](O)[C@H](O)[C@@H](O)CNC1CCCCC1`: 144 to 146 °C. The same measure for `CCCc1c(S)ccc2c(C)c(CC(=O)OC)c(=O)oc12`: 131 to 132 °C; for `O=C(O)CC[C@H]1O[C@@H](c2ccccc2)c2ccccc2N(Cc2ccccc2)C1=O` (relative stereo): 112 to 114 °C; for `O=C(NC(Cc1ccc(OCc2ccc(Cl)cc2)cc1)C(=O)O)c1cn2ccc(-c3ccc(Cl)cc3)cc2n1` (stereo not drawn): 261 °C. `N#Cc1ccc(Nn2cnnc2)cc1-c1ccccc1` displayed a melting point of 181 to 182 °C. The same measure for `O=C(O)c1coc(Cn2cc(C3c4ccccc4C=Cc4ccccc43)c(=S)[nH]c2=O)n1`: 200 °C; for `COC(=O)CCc1ccc(C(=O)Cc2ccccc2)cc1`: 77 to 78 °C. The same measure for `CC12CC(=O)NN=C1c1ccc(N)cc1C2` (stereo not drawn): 222 °C; for `O=C1CCC(c2ccc(OCC3CO3)c(Cl)c2)=NN1` (stereo not drawn): 148 to 149 °C. The same measure for `CC1(C)CC(=O)Nc2c(Br)cc3c(c21)OC(CBr)C3` (stereo not drawn): 237 to 239 °C; for `COc1ccc(CCBr)cc1OC`: 72 to 73 °C. On to `Cc1nc2c3c(c(C(=O)NCCO)cc2n1C)CCC(c1ccccc1)O3` (stereo not drawn), for which the melting point lay in the range of 228 to 229 °C. The same measure for `CCN1CCN(C(=O)c2ccc(-c3cc(C(=O)Cc4cccc(C)n4)ccn3)cc2)CC1`: 90 °C; for `CN(C(=O)COc1nnc(C(F)F)s1)c1ccccc1`: 67 °C; for `O=C(O)CCCCC=Cc1cc(-c2ccccc2)c2ccccc2n1`: 152 to 154 °C. Turning to `O=C(OCc1ccccc1)N1CCC(O)(Cn2nc(-c3c(-c4ccccc4)nn4ccccc34)ccc2=O)CC1`, the melting point fell in the range of 176 to 177 °C. The same measure for `ClC1=NC(Cl)(c2ccc(Cl)cc2)NC=N1` (stereo not drawn): 142 to 143 °C; for `CC1=C(C(=O)OCOC(=O)C(C)(C)C)C(C)C(C(=O)OCOC(=O)C(C)(C)C)=C(C)N1`: 82 to 83 °C.

Compound `CCCn1nnn(-c2cc(C)c(Cl)cc2Cl)c1=O` came in with a melting point of 47 to 48 °C. The same measure for `Cc1ccc(-c2nn(CCO)c(=O)c(-c3ccccc3)c2-c2ccc(C)cc2)cc1`: 192 to 194 °C; for `OCc1conc1-c1ccc(C(F)(F)F)cc1`: 70 to 71 °C; for `C=CCCCN(C(=O)OC(C)(C)C)c1cc(OCc2ccccc2)c2ccccc2c1I`: 69 to 71 °C. The same measure for `CCOC(=O)c1nn(-c2ccc(F)cc2)c2c1CCCC2`: 100 to 101 °C. The same measure for `N#Cc1nn(-c2c(Cl)cc(C(F)(F)F)cc2Cl)cc1C=C(F)F`: 75 to 77 °C; for `CC(=O)N1CCc2[nH]c3cc(-n4ccc(OCc5ccccc5)cc4=O)ccc3c2CC1`: 250 to 254 °C. `N#Cc1cnc2cnc(F)cc2c1Nc1ccc(F)c(Cl)c1` yielded a melting point of 108 to 111 °C. The same measure for `Cc1ccc(S(=O)(=O)N2CCN(S(=O)(=O)c3ccc(C)cc3)CC3CCC(CN(S(=O)(=O)c4ccc(C)cc4)CC2)O3)cc1`: 175 to 178 °C. Compound `CSc1nn2c(N3CCN(C)CC3)cc(C)nc2c1S(=O)(=O)c1ccc(C(C)C)cc1` showed a melting point of more than 230 °C. In turn, `CCOc1cc(-c2cc(C(F)(F)F)nc(-c3ccnc(-c4ccc(S(N)(=O)=O)s4)c3)n2)ccc1C(F)(F)F` showed a melting point of 238 °C. The same measure for `CC(C)Sc1sc(-c2cc[nH]n2)c2c1C(=O)CC(C)(C)C2`: 195 to 198 °C; for `CC(C)c1cccc(C(C)C)c1NC(=O)C1c2ccccc2OCc2nc(Br)ccc21` (stereo not drawn): 151 to 153 °C. The same measure for `N#Cc1ccc(C(=O)NCCCCn2cnc3c(N)nc4ccccc4c32)cc1`: 223 to 225 °C. The same measure for `CC(C)(O)c1cc(Cn2cncn2)cc(C(C)(C)C#N)c1`: 152 to 154 °C; for `COc1cc(/C=C\c2ccc([N+](=O)[O-])cc2)cc(OC)c1OC`: 140 to 142 °C; for `CSc1nc2cccccc-2n1`: 101 to 102 °C.

In turn, `CC(C)(O)Cn1cnc2c(N)nc3cc(OCc4ccccc4)ccc3c21` registered a melting point of 254 to 257 °C. The same measure for `COc1ccc2nccc(CCC[C@@H]3CCN(CCCc4cccc(F)c4)C[C@@H]3C(=O)O)c2c1`: 206 °C; for `C[C@H](C(=O)N[C@@H](COC(=O)C(C)(C)C)Cc1ccccc1)c1ccc(NS(C)(=O)=O)c(F)c1`: 117 to 119 °C. The same measure for `O=C(/C=C/c1ccc2ccccc2c1)N1CCOC1=O`: 121 to 123 °C.
